# Assay results published in patent US20050118678A1, “Modified polypeptides with therapeutic activity and methods of use” (priority 2003, published 2005).
# pIC50: −log10 of the molar value. Residues, ends and D or L forms follow the SMILES beside them. No end group written: not given here. *: point of attachment. Stearoyl = CCCCCCCCCCCCCCCCCC(=O)*; Lauroyl = CCCCCCCCCCCC(=O)*
# How the values were obtained:
# E. coli 055:B5 LPS = assay: Limulus amoebocyte lysate assay for LPS neutralization; assay type: biochemical; conditions: for pIC50: 0.04 unit E. coli 055:B5 LPS, chromogenic QCL-1000 kit, read-out: LPS Binding (IC50); for LPS binding activity, fold higher than the SC4 peptide: relative to SC4
# Description: Limulus amoebocyte lysate assay for lipopolysaccharide (LPS) neutralization. The ability of SC4 peptide and amphiphiles to neutralize endotoxin was measured using the chromogenic QCL-1000 kit from BioWhittaker, Inc. (Walkersville, Md). This method is quantitative for Gram-negative bacterial endotoxin (LPS) and uses peptide inhibition of LPS-mediated activation of a proenzyme as a measure of activity (Young et al., J. Clin. Invest. 51, 1790-1797 (1972)). Peptides of the appropriate concentration were mixed with Limulus amoebocyte lysate, 0.04 unit (0.01 nanogram (ng)) of E. coli 055:B5 LPS (SIGMA), and a colorless synthetic substrate (Ac-Ile-Glu-Ala-Arg-pNA) (SEQ ID NO: 18). Peptide binding to LPS was determined by monitoring enzymatic conversion of the substrate to yellow p-nitroaniline (pNA) via absorption at 410 nm. Endotoxin concentration was determined from the initial rate of enzyme activation. IC50 (concentration displaying 50% inhibition) values for LPS binding were determined by fitting to a dose-response curve.
# [1] = test system: drug-resistant strains of S. aureus (W73134 and M49780); assay: Example 2 antibacterial effect on drug-resistant strains; assay type: cell-based; conditions: W73134 and M49780, FIG. 15 and 16
# bacteria = assay: Example 3 antibacterial activity of lauric acid conjugates; assay type: cell-based; conditions: lauric acid conjugate vs unconjugated peptide
# Text: The hemolytic activity of the KAK and AKK peptides and conjugates was low. […] Fatty acid conjugation will improve the usefulness of peptides as antimicrobial agents by enhancing their ability to form secondary structures upon interacting with the bacterial membranes.
# E. coli J96 = conditions: J96, pH 7
# E. coli IA2 = conditions: IA2, pH 7
# P. aeruginosa Type I = conditions: pH 7
# S. aureus MN8 = conditions: MN8, pH 7
# S. aureus MNHO = conditions: pH 7
# S. pyogenes Eaton = conditions: pH 7
# S. pyogenes Wilson = conditions: pH 7
# B. anthracis = conditions: cell survival by optical density at 650 nm
# human red blood cells = conditions: for Hemolysis (LD50): red cells of human, 1 h
# [2] = test system: MN8, Hoch, Knutson, FR1722, and RN6390; assay: Example 2 antibacterial effect on five Gram-positive strains; assay type: cell-based; conditions: FIG. 10-14
# [3] = test system: erythrocytes (hemolytic activity); conditions: cited from earlier work
Compound,Hemolytic activity (eukaryotic cell),Bactericidal Activity (LD50) E. coli J96 (E. coli J96) [µM],Bactericidal Activity (LD50) E. coli IA2 (E. coli IA2) [µM],Bactericidal Activity (LD50) P. aeruginosa Type I (P. aeruginosa Type I) [µM],Bactericidal Activity (LD50) S. aureus MN8 (S. aureus MN8) [µM],Bactericidal Activity (LD50) S. aureus MNHO (S. aureus MNHO) [µM],Bactericidal Activity (LD50) S. aureus M49780 (S. aureus M49780) [µM],Bactericidal Activity (LD50) S. aureus W73134 (S. aureus W73134) [µM],Bactericidal Activity (LD50) S. pyogenes Eaton (S. pyogenes Eaton) [µM],Bactericidal Activity (LD50) S. pyogenes Wilson (S. pyogenes Wilson) [µM],Bactericidal Activity (LD50) B. anthracis (B. anthracis) [µM],Hemolysis (LD50) (human red blood cells) [µM],further results
"C[C@H](NC(=O)[C@H](C)NC(=O)[C@H](CCCCN)NC(=O)[C@H](C)NC(=O)[C@H](C)NC(=O)[C@H](CCCCN)NC(=O)[C@H](CCCCN)NC(=O)[C@H](C)NC(=O)[C@H](C)NC(=O)[C@H](CCCCN)NC(=O)[C@H](C)NC(=O)[C@H](C)NC(=O)[C@H](CCCCN)NC(=O)[C@H](CCCCN)NC(=O)[C@H](C)NC(=O)[C@H](C)NC(=O)CNC(=O)[C@@H](N)Cc1ccc(O)cc1)C(=O)O [AKK, YGAA[KKAAKAA](2), reference compound] (H-YGAAKKAAKAAKKAAKAA-OH)",low,,,,,,,,,,,,
CCCCCCCCCCCC(=O)N[C@@H](CCCCN)C(=O)N[C@@H](CC(C)C)C(=O)N[C@@H](Cc1ccccc1)C(=O)N[C@@H](CCCCN)C(=O)N[C@@H](CCCNC(=N)N)C(=O)N[C@@H](Cc1c[nH]cn1)C(=O)N[C@@H](CC(C)C)C(=O)N[C@@H](CCCCN)C(=O)N[C@@H](Cc1c[nH]c2ccccc12)C(=O)N[C@@H](CCCCN)C(=O)N[C@H](C(=O)N[C@H](C(N)=O)[C@@H](C)CC)[C@@H](C)CC [C12-SC4] (Lauroyl-KLFKRHLKWKII-NH2),,0.077,0.079,0.035,0.68,0.34,0.66,0.62,0.066,0.16,3.25,6.2,"pIC50 (E. coli 055:B5 LPS): 6.64; LPS binding activity, fold higher than the SC4 peptide (E. coli 055:B5 LPS): approximately 3 fold; Killing of drug-resistant S. aureus strains [1]: killed both drug-resistant strains; Antimicrobial activity relative to unconjugated peptide (bacteria): increased antimicrobial activity; Change in hemolytic activity on fatty acid conjugation (eukaryotic cell): large increase in hemolytic activity"
CCCCCCCCCCCCCCCCCC(=O)N[C@@H](CCCCN)C(=O)N[C@@H](CC(C)C)C(=O)N[C@@H](Cc1ccccc1)C(=O)N[C@@H](CCCCN)C(=O)N[C@@H](CCCNC(=N)N)C(=O)N[C@@H](Cc1c[nH]cn1)C(=O)N[C@@H](CC(C)C)C(=O)N[C@@H](CCCCN)C(=O)N[C@@H](Cc1c[nH]c2ccccc12)C(=O)N[C@@H](CCCCN)C(=O)N[C@H](C(=O)N[C@H](C(N)=O)[C@@H](C)CC)[C@@H](C)CC [C18-SC4] (Stearoyl-KLFKRHLKWKII-NH2),,0.23,0.19,0.042,0.11,0.068,0.24,0.10,0.11,0.13,2.23,1.9,"pIC50 (E. coli 055:B5 LPS): 7.09; LPS binding activity, fold higher than the SC4 peptide (E. coli 055:B5 LPS): ~6 fold; Increase in antibacterial effect relative to SC-4 [2]: ten to twenty fold increases; Killing of drug-resistant S. aureus strains [1]: killed both drug-resistant strains; Hemolytic activity, fold more hemolytic than C12-SC4 (human red blood cells): roughly 3 fold"
"C[C@H](NC(=O)[C@H](CCCCN)NC(=O)[C@H](C)NC(=O)[C@H](C)NC(=O)[C@H](CCCCN)NC(=O)[C@H](C)NC(=O)[C@H](CCCCN)NC(=O)[C@H](C)NC(=O)[C@H](C)NC(=O)[C@H](CCCCN)NC(=O)[C@H](C)NC(=O)[C@H](C)NC(=O)[C@H](CCCCN)NC(=O)[C@H](C)NC(=O)[C@H](CCCCN)NC(=O)[C@H](C)NC(=O)CNC(=O)[C@@H](N)Cc1ccc(O)cc1)C(=O)O [KAK, YG[AKAKAAKA](2), reference compound] (H-YGAKAKAAKAAKAKAAKA-OH)",low,,,,,,,,,,,,
"CC[C@H](C)[C@H](NC(=O)[C@@H](NC(=O)[C@H](CCCCN)NC(=O)[C@H](Cc1c[nH]c2ccccc12)NC(=O)[C@H](CCCCN)NC(=O)[C@H](CC(C)C)NC(=O)[C@H](Cc1c[nH]cn1)NC(=O)[C@H](CCCNC(=N)N)NC(=O)[C@H](CCCCN)NC(=O)[C@H](Cc1ccccc1)NC(=O)[C@H](CC(C)C)NC(=O)[C@@H](N)CCCCN)[C@@H](C)CC)C(N)=O [SC4, KLFKRHLKWKII, reference compound] (H-KLFKRHLKWKII-NH2)",,0.12,0.21,0.028,1.3,2.3,2.0,2.3,>2.0,>1.0,>15,>375,Concentration up to which little hemolytic activity was demonstrated (human red blood cells): > 400 µM; Concentration below which no hemolytic activity is shown [3]: ≥ 100 µM
"conjugated AKK: AKK peptide YGAA[KKAAKAA](2) conjugated with lauric acid (YGAAKKAAKAA; numbers in words are those of the source; also: dimer [KKAAKAA](2), lauric acid conjugate, place not given here)",low,,,,,,,,,,,,Antimicrobial activity relative to unconjugated peptide (bacteria): increased antimicrobial activity
"conjugated KAK: KAK peptide YG[AKAKAAKA](2) conjugated with lauric acid (YGAKAKAAKA; numbers in words are those of the source; also: dimer [AKAKAAKA](2), lauric acid conjugate, place not given here)",low,,,,,,,,,,,,
